These are literature values, as cited in patent publication US20240009325A1 (PriZm, LLC, priority 2022, published 2024).

The test system of one series is D1. Conditions: cited from earlier work.
The test system of a further series is mice deficient in MCT8. Conditions: cited from earlier work; for cell entry in absence of MCT8: Mct8 deficient mice.
The subject of another series is MCT8 deficient children. Conditions: cited from earlier work; for high blood / serum T3 / neuropsychomotor deficit / neurological symptoms: MCT8 deficient patients.
The next series deals with animal models. Particulars: mice not neurologically affected; cited from earlier work.

“Also recorded” adds a separate entry of the source.

For the molecule `O=C(O)Cc1cc(I)c(Oc2ccc(O)c(I)c2)c(I)c1` [TRIAC, triiodothyroacetic acid], the D1 result with D1 is “increases”. Also, the “cell entry in absence of MCT8” value in the series on mice deficient in MCT8 is listed as “enter cells independent of MCT8”. Further, in the series on MCT8 deficient children, the “high blood / serum T3” value was “reduced” and the “neuropsychomotor deficit / neurological symptoms” value is on record as “no evidence for improvement”. In addition, the T4 serum levels result in the series with MCT8 deficient children (clinical trial, Groeneweg et al. 2019) is “significantly reduce”. Besides, the “peripheral and central abnormalities” value in the series with animal models was “able to restore some”.
In the case of `Cc1cc(OCC(=O)O)cc(C)c1Cc1ccc(O)c(C(C)C)c1` [Sobetirome], the “peripheral and central abnormalities” value with animal models is reported as “able to restore some”.
For `O=C(O)Cc1cc(I)c(Oc2cc(I)c(O)c(I)c2)c(I)c1` [TETRAC], in the series with animal models, the “peripheral and central abnormalities” value is “able to restore some”.
For `O=C(O)CCc1cc(I)c(Oc2ccc(O)cc2)c(I)c1` [DITPA, 3,5-diiodothyropropionic acid], in the series on mice deficient in MCT8 (MCT8 deficient vs normal mice), the “suppressive effect on TSH” value is reported as “equal suppressive effect”. Moreover, in the series with mice deficient in MCT8, the “cell entry in absence of MCT8” value is listed as “enter cells independent of MCT8”. Besides, the hypermetabolism and nutrition entry with MCT8 deficient children (4 MCT8 deficient children, compassionate basis) was “ameliorating”. Besides, in the series on MCT8 deficient children, the “high blood / serum T3” value was “reduction and normalization; also recorded: reduced”; the “neuropsychomotor deficit / neurological symptoms” value was “not the neuropsychomotor deficit; also recorded: no evidence for improvement”. Also, the “peripheral and central abnormalities” value with animal models is “able to restore some”.
